Measured values: paper PMC3438292 (Journal of medicinal chemistry, 2010)

Tests used:
[1] = test system: 5-HT2B receptor; settings: cited from earlier work
[2] = target: 5-HT2B receptors (Homo sapiens, UniProt P41595); test: 5-HT2B functional assays at the PDSP; format: cell-based; settings: among the 9 5-HT2B ligands
5-HT2B receptors, sequence (P41595 whole entry): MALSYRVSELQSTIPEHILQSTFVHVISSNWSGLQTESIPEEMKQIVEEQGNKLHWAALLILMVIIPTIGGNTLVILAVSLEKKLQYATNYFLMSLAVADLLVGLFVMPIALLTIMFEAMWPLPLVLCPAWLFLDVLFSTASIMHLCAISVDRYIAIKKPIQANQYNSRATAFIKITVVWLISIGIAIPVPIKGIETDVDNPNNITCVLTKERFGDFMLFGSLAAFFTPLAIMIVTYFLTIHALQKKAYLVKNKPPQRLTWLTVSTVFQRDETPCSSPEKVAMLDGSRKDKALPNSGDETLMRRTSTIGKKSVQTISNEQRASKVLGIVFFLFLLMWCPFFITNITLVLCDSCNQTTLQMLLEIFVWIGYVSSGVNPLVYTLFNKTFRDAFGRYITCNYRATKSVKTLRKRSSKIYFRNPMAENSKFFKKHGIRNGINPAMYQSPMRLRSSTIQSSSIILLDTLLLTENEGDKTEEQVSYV

Row | Structure (SMILES) | activation of 5-HT2B receptors [1] | agonist activity in 5-HT2B functional assays [2]
1 | CC(N)Cc1cccc(C(F)(F)F)c1 (stereo not drawn) [norfenfluramine] | potently activate | 
2 | CCNC(C)Cc1cccc(C(F)(F)F)c1 (stereo not drawn) [Fenfluramine] | potently activate | 
3 | CC[C@@H](CO)NC(=O)[C@@H]1C=C2c3cccc4[nH]cc(c34)C[C@H]2N(C)C1 [Compound 7, methylergometrine] |  | strong agonist activity
4 | CC[C@@H](CO)NC(=O)[C@@H]1C=C2c3cccc4[nH]cc(c34)C[C@H]2N(C)C1 [Methylergonovine] | potently activate | 
5 | CN1C[C@H](C(=O)N[C@]2(C)O[C@@]3(O)[C@@H]4CCCN4C(=O)[C@H](Cc4ccccc4)N3C2=O)C=C2c3cccc4[nH]cc(c34)C[C@H]21 [ergotamine] | potently activate | 
6 | CCCN1C[C@H](CSC)C[C@@H]2c3cccc4[nH]cc(c34)C[C@H]21 [Pergolide] | potently activate | 
